Tests used:
[1] = in vivo; cited from earlier work
[2] = cited from earlier work
[3] = remark: listed apart in the source
Description: The composition is prepared by the combination of selenium disulfide (SeS2) in combination with Petrolatum base (and in the absence of surface acting agents). Compositions comprising various concentrations of selenium disulfide are prepared, such as 0.1 wt. %, 0.5 wt. %, 1 wt. %, 1.5 wt. %, 2 wt. %, and 2.5 wt. %.
Various compositions prepared as described above are administered to the eye or eyelid (e.g., margin thereof) of albino rabbits. Various compositions are administered to distinct cohorts using various treatment protocols, such as based on frequency of administration (e.g., once daily, twice daily, every other day, and once weekly) and volume of administration (e.g., <25 μL, […] per administration). Compositions lacking selenium disulfide are administered to a separate cohort to establish a control.
Albino rabbits are evaluated, and an accurate volume of the composition is ejected from a device (e.g., micropipette) and is delivered to the lower eyelid of the rabbits. In one example, the volume is ˜25 μL (equivalent to 20 mg in weight). The rabbits are examined daily.
2.5% SeS2 at a dosing volume of 25 μL is administered to the animals.
Therefore, a reduced dose of 5 μL (equivalent to 4 mg) is placed on the lid of the rabbits.

[4] = rabbit, in vivo; cited from earlier work
[5] = rabbit, in vivo
Description: On a subsequent study to Example 6, concentrations ranging from 0.5 wt. % to 2.5 wt. % were used on New-Zealand rabbits, once daily to twice weekly for 28 days.

[6] = tested on: Demodex folliculorum mites; test: In vitro assessment of anti-demodectic properties: viability of Demodex mites on epilated eyelashes; conditions: SeS2 4%
[7] = 25 μL (20 mg) of 2.5% SeS2 with petrolatum, lower eyelid of right eye

S=[Se]=S [SeS2, selenium disulfide]
irritancy to rabbit dermis [1]: did not appear to be irritant
tolerability of ointment on the lids ([2]; 0.5 percent ointment, all patients complained of burning of the conjunctiva (Rychener)): too strong
epithelial keratitis ([2]; human, in vivo): 6 cases
keratitis, conjunctivitis with erythematous and swollen lids ([2]; human, in vivo): Two
finding on clinical examination [7]: keratitis is observed with multiple punctate over the center exposed part of the cornea
time to reported pain [7]: About 4 hours
time to resolution of keratitis (treated with lubricants and local NSAID): ≤ 48 h
clinical or microscopic findings ([3]; 0.5%, 1.0% or 2.5%, twice weekly or once daily, dose volume 5 μL, summary, species not stated): no clinical or microscopic findings
keratitis, including red and swollen eyelids, animals affected ([3]; rabbit, in vivo): all animals
ocular effects at reduced dose ([3]; rabbit, in vivo): no evidence for any of the effects
time to onset of ocular effects after application [4]: ≤ 2 h
ophthalmic observations versus previous study [5]: safer
death of the mites [6]: caused death of the mites

From patent US20220323487A1, “METERED DOSE FOR DEMODEX AND DISORDERS RELATED THERETO” (Azura Ophthalmics Ltd., priority 2019, published 2022)
